Test results published in ChEMBL document CHEMBL3137667, “[Drug-induced liver injury; fourteenth updated edition of the bibliographic database of liver injuries and related drugs]” (Gastroenterol Clin Biol, 2004).

Legend:
[1] = human
[2] = Highest frequency of moderate liver toxicity observed during clinical trials, expressed as a percentage. [column '% BIOL' in source]; conditions: human
[3] = human; remark: listed apart in the source
[4] = human; remark: listed apart in the source
[5] = human; remark: listed apart in the source
[6] = Proposed mechanism(s) of liver damage. [column 'MEC' in source]; conditions: human
[7] = human; remark: listed apart in the source
[8] = human; remark: listed apart in the source
[9] = human, serum
[10] = human, serum; remark: listed apart in the source
[11] = Times to onset, minimal and maximal, observed in the indexed observations. [column 'DELAI' in source]; conditions: human
[12] = human, serum, 4383 h
[13] = human; remark: listed apart in the source
[14] = Highest frequency of acute liver toxicity observed during clinical trials, expressed as a percentage. [column '% AIGUE' in source]; conditions: human
[15] = Presence of at least one case with successful reintroduction. [column 'REINT' in source]; conditions: human
[16] = human; remark: listed apart in the source
[17] = human; remark: listed apart in the source
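Wherever Hepatotoxicity (association with vascular disease) is given: count of indexed literature references reporting vascular liver injury in humans, e.g. peliosis hepatitis, hepatic veno-occlusive disease or Budd-Chiari syndrome.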
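Wherever Hepatotoxicity (benign tumour) is given: value is a count of indexed literature references citing a benign tumour confirmed by histopathology.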
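Wherever Hepatotoxicity (choleostasis) is given: human cholestatic liver injury, shown by histopathology or by peak ALT or AST elevation over alkaline phosphatase ratio below 2, value counts indexed literature reports.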
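Wherever Hepatotoxicity (chronic liver disease) is given: chronic liver injury confirmed by histopathology or persistently raised serum aminotransferase activity beyond 6 months, value given as the count of indexed literature references.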
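Wherever Hepatotoxicity (cirrhosis) is given: value is a count of indexed literature references reporting cirrhosis confirmed by histopathology.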
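Wherever Hepatotoxicity (cytolytic) is given: human cytolytic liver injury, shown by histopathology or by a ratio above 5 of peak ALT or AST elevation to alkaline phosphatase elevation, value counts indexed references.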
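Wherever Hepatotoxicity (granulomatous hepatitis) is given: value is a count of indexed literature references reporting granulomatous liver disease confirmed by histopathology.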
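Wherever Hepatotoxicity (malignant tumour) is given: malignant tumour confirmed by histopathology, value gives the count of indexed literature references reporting it.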
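Wherever Hepatotoxicity (severe hepatitis) is given: human clinical data: severe hepatitis, meaning potentially life-threatening liver failure or clinically observed cases, the value counts how many indexed literature references report it.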
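Wherever Hepatotoxicity (steatosis) is given: steatosis confirmed by histopathology, value is the count of indexed references.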

Compound	Hepatotoxicity (granulomatous hepatitis) [1]	Hepatotoxicity (moderate) [2] [%]	Hepatotoxicity (cytolytic) [3]	Hepatotoxicity (cirrhosis) [4]	Hepatotoxicity (steatosis) [5]	Hepatotoxicity (mechanism) [6]	Hepatotoxicity (benign tumour) [7]	Hepatotoxicity (severe hepatitis) [8]	Hepatotoxicity (acute) [9]	Hepatotoxicity (moderate) [10]	Hepatotoxicity (time to onset) [11]	Hepatotoxicity (chronic liver disease) [12]	Hepatotoxicity (choleostasis) [13]	Hepatotoxicity (acute) [14] [%]	Hepatotoxicity (successful reintroduction) [15]	Hepatotoxicity (malignant tumour) [16]	Hepatotoxicity (association with vascular disease) [17]	other results
CCc1nn(CCCN2CCN(c3cccc(Cl)c3)CC2)c(=O)n1CCOc1ccccc1 [NEFAZODONE]	0	0	14	0	0	Allergic	0	11	16	4	1 week - 2 years	0	0	0	yes	0	0	–
NC(=O)c1cccnc1 [NIACINAMIDE]	0	6.3	1	0	0	Dose-dependant	0	0	2	1	< 2 months - 3 months	0	0	0	yes	0	0	–
O=C(O)c1cccnc1Nc1cccc(C(F)(F)F)c1 [NIFLUMIC ACID]	0	0	4	0	0	Allergic	0	2	4	0	3 days - 3.5 weeks	0	1	0	yes	0	0	–
COc1ccc2[nH]c([S+]([O-])Cc3ncc(C)c(OC)c3C)nc2c1 (stereo not given) [OMEPRAZOLE]	0	47	8	0	0	Dose-dependant	0	1	10	24	2 days - 1 year	0	3	3.1	yes	0	0	–
O=C1c2ccccc2C(=O)C1c1ccccc1 [PHENINDIONE]	1	0	3	0	0	Allergic	0	1	13	1	1 week - 2 months	0	11	0.2	yes	0	0	–
CC(C(=O)O)c1ccc(N2CC=CC2)c(Cl)c1 (stereo not given) [PIRPROFEN]	0	2.8	9	1	2	Toxic Metabolite	0	8	9	5	1 week - 1 year	1	2	0.3	yes	0	0	–
Cc1ncc(CO)c(CO)c1O [PYRIDOXINE]	–	–	–	0	0	–	0	–	1	2	2 months	0	–	–	yes	0	0	Hepatotoxicity (granulomatous hepatitis) ([1]; Liver): 0; Hepatotoxicity (moderate) ([2]; Liver): 6%; Hepatotoxicity (cytolytic) ([3]; Liver): 1; Hepatotoxicity (mechanism) ([6]; Liver): Dose-dependant; Hepatotoxicity (severe hepatitis) ([8]; Liver): 0; Hepatotoxicity (choleostasis) ([13]; Liver): 0; Hepatotoxicity (acute) ([14]; Liver): 0%
CCC1NC(=O)c2cc(S(N)(=O)=O)c(Cl)cc2N1 (stereo not given) [QUINETHAZONE]	0	0	0	0	0	Allergic	0	0	1	0	2 months	0	1	0	yes	0	0	–
Cc1nc2ccc(CN(C)c3ccc(C(=O)N[C@@H](CCC(=O)O)C(=O)O)s3)cc2c(=O)[nH]1 [RALTITREXED]	0	100	7	1	1	Dose-dependant	0	3	8	20	2 weeks - 17 weeks	0	1	21.9	yes	0	0	–
CCCCCCCCNC(C)C(O)c1ccc(SC(C)C)cc1 (stereo not given) [SULOCTIDIL]	0	15	7	4	1	Allergic	0	2	8	3	1 week - 1 year	1	3	0.5	yes	0	0	–
